# Target: PARP7 (Homo sapiens (Human), UniProt Q7Z3E1)
# Test: Enzymatic assay for inhibition of PARP7: TR-FRET displacement of biotinylated Probe A from the TIPARP active site
# Type: binding
# Conditions: Table A-1
# Outline: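 Displacement of biotinylated Probe A from TIPARP was measured as the 665/615 nm time-resolved FRET ratio (excitation 320 nm, 90 μs delay) after a further 30 min at 25 °C. Inhibition across compound concentrations was fitted by dose-response regression, with the Hill slope free or fixed at 1 (3-parameter fit).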
# PARP7, sequence (Q7Z3E1 whole entry): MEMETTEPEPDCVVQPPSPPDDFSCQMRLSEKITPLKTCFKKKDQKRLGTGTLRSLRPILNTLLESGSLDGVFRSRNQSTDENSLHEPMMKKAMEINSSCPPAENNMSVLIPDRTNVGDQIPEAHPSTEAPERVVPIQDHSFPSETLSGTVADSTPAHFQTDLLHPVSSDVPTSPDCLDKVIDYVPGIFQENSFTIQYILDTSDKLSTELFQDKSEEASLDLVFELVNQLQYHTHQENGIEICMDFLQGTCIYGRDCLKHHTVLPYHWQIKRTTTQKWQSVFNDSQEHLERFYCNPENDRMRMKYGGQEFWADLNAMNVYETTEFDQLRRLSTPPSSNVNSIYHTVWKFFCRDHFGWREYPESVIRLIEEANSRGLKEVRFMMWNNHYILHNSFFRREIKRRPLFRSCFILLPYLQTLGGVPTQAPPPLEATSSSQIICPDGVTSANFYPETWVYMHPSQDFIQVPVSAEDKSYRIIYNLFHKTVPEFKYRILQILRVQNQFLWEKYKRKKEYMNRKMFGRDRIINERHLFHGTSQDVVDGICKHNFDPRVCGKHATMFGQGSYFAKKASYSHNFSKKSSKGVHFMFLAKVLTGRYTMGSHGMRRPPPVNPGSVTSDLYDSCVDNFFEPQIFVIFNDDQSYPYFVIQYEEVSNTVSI
row,Structure (SMILES),IC50
1,"N#Cc1ccc(N2CCN(C(=O)CCCOCc3cccc4c3CN(c3cn[nH]c(=O)c3C(F)(F)F)C4)CC2)nc1 [Example 496, 6-(4-(4-((2-(6-Oxo-5-(trifluoromethyl)-1,6-dihydropyridazin-4-yl)isoindolin-4-yl)methoxy)butanoyl)piperazin-1-yl)nicotinonitrile]",< 100 nM
2,"N#Cc1ccc(N2C[C@@H]3C[C@H]2CN3C(=O)CCOC[C@@H]2CCCN2c2cn[nH]c(=O)c2C(F)(F)F)nc1 [Example 112A, 6-[(1S,4S)-5-(3-(((S)-1-(6-oxo-5-(trifluoromethyl)-1,6-dihydropyridazin-4-yl)pyrrolidin-2-yl)methoxy)propanoyl)-2,5-diaza-bicyclo[2.2.1]heptan-2-yl)nicotinonitrile]",100 to 1000 nM
3,"N#Cc1ccc(N2CCN(C(=O)c3ccc(OCC4c5ccccc5CN4c4cn[nH]c(=O)c4C(F)(F)F)cc3)CC2)nc1 (stereo not shown) [Example 371, 6-(4-(4-((2-(6-Oxo-5-(trifluoromethyl)-1,6-dihydropyridazin-4-yl)isoindolin-1-yl)methoxy)benzoyl)piperazin-1-yl)nicotinonitrile]",100 to 1000 nM
4,"O=c1[nH]ncc(N2Cc3ccc(OCc4ccncc4)nc3C2)c1C(F)(F)F [Example 321, 5-(2-(Pyridin-4-ylmethoxy)-5,7-dihydro-6H-pyrrolo[3,4-b]pyridin-6-yl)-4-(trifluoromethyl)pyridazin-3(2H)-one]",< 100 nM
5,"Cc1c(N2Cc3ccc(OCCO)cc3C2)cn[nH]c1=O [Example 188, 5-(5-(2-Hydroxyethoxy)isoindolin-2-yl)-4-methylpyridazin-3(2H)-one]",100 to 1000 nM
6,"CC(=O)N1CCCC(COc2cc3c(cc2F)CN(c2cn[nH]c(=O)c2C(F)(F)F)C3)C1 (stereo not shown) [Example 45, 5-[5-[(1-acetylpiperidin-3-yl)methoxy]-6-fluoro-2,3-dihydro-1H-isoindol-2-yl]-4-(trifluoromethyl)-2,3-dihydropyridazin-3-one]",< 100 nM
7,"N#Cc1ccc(N2CCN(C(=O)[C@@H]3CNC[C@@H](OC[C@@H]4CCCN4c4cn[nH]c(=O)c4C(F)(F)F)C3)CC2)nc1 (single isomer, unassigned) [Example 56 Isomer A]",< 100 nM
8,"N#Cc1ccc(N2CCN(C(=O)c3cncc(OC[C@@H]4CCCN4c4cn[nH]c(=O)c4C(F)(F)F)n3)CC2)nc1 [Example 74, 6-[4-[(6-[[(2S)-1-[6-oxo-5-(trifluoromethyl)-1,6-dihydropyridazin-4-yl]pyrrolidin-2-yl]methoxy]pyrazin-2-yl)carbonyl]piperazin-1-yl]pyridine-3-carbonitrile]",< 100 nM
9,"CN(CCOCCC(=O)N1CCN(c2ccc(C#N)cn2)CC1)c1cn[nH]c(=O)c1C(F)(F)F [Example 510, 6-[4-[3-(2-[Methyl[6-oxo-5-(trifluoromethyl)-1,6-dihydropyridazin-4-yl]amino]ethoxy)propanoyl]piperazin-1-yl]pyridine-3-carbonitrile]",< 100 nM
10,"O=c1[nH]ncc(N2Cc3cc(OCCO)cc(F)c3C2)c1C(F)(F)F [Example 323, 5-(4-Fluoro-6-(2-hydroxyethoxy)isoindolin-2-yl)-4-(trifluoromethyl)pyridazin-3(2H)-one]",< 100 nM
11,"N#Cc1ccc(N2CCN(C(=O)CCOC[C@@H](Nc3cn[nH]c(=O)c3C(F)(F)F)c3ccccc3)CC2)nc1 [Example 514B, 6-(4-[3-[(2S)-2-[[6-Oxo-5-(trifluoromethyl)-1,6-dihydropyridazin-4-yl]amino]-2-phenylethoxy]propanoyl]piperazin-1-yl)pyridine-3-carbonitrile]",< 100 nM
12,"COCCOc1cccc2c1CN(c1cn[nH]c(=O)c1Cl)C2 [Example 162, 4-Chloro-5-(4-(2-methoxyethoxy)isoindolin-2-yl)pyridazin-3(2H)-one]",100 to 1000 nM
13,"O=C(c1cccc(OCC2c3ccccc3CN2c2cn[nH]c(=O)c2C(F)(F)F)c1)N1CCn2nncc2C1 (stereo not shown) [Example 399, 5-(1-((3-(4,5,6,7-Tetrahydro-[1,2,3]triazolo[1,5-a]pyrazine-5-carbonyl)phenoxy)methyl)isoindolin-2-yl)-4-(trifluoromethyl)pyridazin-3(2H)-one]",100 to 1000 nM
14,"O=c1[nH]ncc(N2Cc3cccc(OC4CCNCC4)c3C2)c1C(F)(F)F [Example 170, 5-(4-(Piperidin-4-yloxy)isoindolin-2-yl)-4-(trifluoromethyl)pyridazin-3(2H)-one]",< 100 nM
15,"CN(C)CCOc1cc(F)c2c(c1)CN(c1cn[nH]c(=O)c1C(F)(F)F)C2 [Example 331, 5-(6-(2-(Dimethylamino)ethoxy)-4-fluoroisoindolin-2-yl)-4-(trifluoromethyl)pyridazin-3(2H)-one]",< 100 nM
16,"COc1c(N2Cc3cccc(OCCO)c3C2)cn[nH]c1=O [Example 184, 5-(4-(2-Hydroxyethoxy)isoindolin-2-yl)-4-methoxypyridazin-3(2H)-one]",≥ 1000 nM
17,"O=c1[nH]ncc(N2Cc3ccc(OC4CCNCC4)nc3C2)c1C(F)(F)F [Example 324, 5-(2-(Piperidin-4-yloxy)-5,7-dihydro-6H-pyrrolo[3,4-b]pyridin-6-yl)-4-(trifluoromethyl)pyridazin-3(2H)-one]",100 to 1000 nM
18,"CN(CCC(=O)N1CCN(c2ccc(C#N)cn2)CC1)C[C@H]1c2ccccc2CN1c1cn[nH]c(=O)c1Cl [Example 430, (R)-6-(4-(3-(((2-(5-Chloro-6-oxo-1,6-dihydropyridazin-4-yl)isoindolin-1-yl)methyl)(methyl)amino)propanoyl)piperazin-1-yl)nicotinonitrile]",100 to 1000 nM
19,"NCc1cccc2c1CN(c1cn[nH]c(=O)c1C(F)(F)F)C2 [Example 221, 5-(4-(Aminomethyl)isoindolin-2-yl)-4-(trifluoromethyl)pyridazin-3(2H)-one]",≥ 1000 nM
20,"N#Cc1ccc(N2CCN(C(=O)c3cccc(OCC4COCCN4c4cn[nH]c(=O)c4C(F)(F)F)c3)CC2)nc1 (stereo not shown) [Example 71, 6-(4-[[3-([4-[6-oxo-5-(trifluoromethyl)-1,6-dihydropyridazin-4-yl]morpholin-3-yl]methoxy)phenyl]carbonyl]piperazin-1-yl)pyridine-3-carbonitrile]",100 to 1000 nM
21,"N#Cc1ccc(N2CCN(C(=O)CCNC[C@H]3c4ccccc4CN3c3cn[nH]c(=O)c3C(F)(F)F)CC2)nc1 [Example 146B, 6-[4-[3-([[(1R)-2-[6-oxo-5-(trifluoromethyl)-1,6-dihydropyridazin-4-yl]-2,3-dihydro-1H-isoindo1-1-yl]methyl]amino)propanoyl]piperazin-1-yl]pyridine-3-carbonitrile]",< 100 nM

# Next, values leading:
row,IC50,Structure (SMILES)
1,< 100 nM,"O=C(C[C@@H]1CC[C@H](COc2cn[nH]c(=O)c2C(F)(F)F)O1)N1CCN(c2ccc(C(F)(F)F)cn2)CC1 (single isomer, unassigned) [Example 545 Isomer D]"
2,< 100 nM,"N#Cc1ccc(N2CCN(C(=O)C[C@H]3CC[C@@H](COc4cn[nH]c(=O)c4C(F)(F)F)O3)CC2)nc1 [Example 580 Isomer C, 6-(4-[2-[(2R,5S)-5-([[6-oxo-5-(trifluoromethyl)-1,6-dihydropyridazin-4-yl]oxy]methyl)oxolan-2-yl]acetyl]piperazin-1-yl)pyridine-3-carbonitrile]"
3,< 100 nM,"C[C@@H](COCCC(=O)N1CCN(c2ncc(Cl)cn2)CC1)Oc1cn[nH]c(=O)c1Cl (single isomer, unassigned) [Example 577 Isomer A]"
4,< 100 nM,"COC[C@@H](COCCC(=O)N1CCN(c2cnc(Cl)cn2)CC1)Nc1cn[nH]c(=O)c1Br [Example 693, (S)-4-Bromo-5-((1-(3-(4-(5-chloropyrazin-2-yl)piperazin-1-yl)-3-oxopropoxy)-3-methoxypropan-2-yl)amino)pyridazin-3(2H)-one]"
5,100 to 1000 nM,"N#Cc1ccc(N2CCN(C(=O)CCO[C@@H]3CCC[C@H]3Oc3cn[nH]c(=O)c3C(F)(F)F)CC2)nc1 (single isomer, unassigned) [Example 572 Isomer B]"
6,< 100 nM,"CC[C@@H](COCCC(=O)N1CCN(c2ccc(Cl)cn2)CC1)Nc1cn[nH]c(=O)c1C(F)(F)F [Example 586, 5-[[(2S)-1-[3-[4-(5-Chloropyridin-2-yl)piperazin-1-yl]-3-oxopropoxy]butan-2-yl]amino]-4-(trifluoromethyl)-2,3-dihydropyridazin-3-one]"
7,< 100 nM,"O=C(CCOCCOc1cn[nH]c(=O)c1Br)N1CCN(c2ncc(C(F)(F)F)cn2)CC1 [Example 548, 4-Bromo-5-[2-(3-oxo-3-[4-[5-(trifluoromethyl)pyrimidin-2-yl]piperazin-1-yl]propoxy)ethoxy]-2,3-dihydropyridazin-3-one]"
8,100 to 1000 nM,"O=C(C[C@@H]1CC[C@@H](COc2cn[nH]c(=O)c2C(F)(F)F)O1)N1CCN(c2ncc(C(F)(F)F)cn2)CC1 (single isomer, unassigned) [Example 574 Isomer A]"
9,100 to 1000 nM,"C[C@H](COCCC(=O)N1CCN(c2ccc(Cl)cn2)CC1)Oc1cn[nH]c(=O)c1C(F)(F)F (single isomer, unassigned) [Example 539 Isomer D]"
10,< 100 nM,"N#Cc1ccc(N2CCN(C(=O)CCOC[C@@H](CO)Oc3cn[nH]c(=O)c3C(F)(F)F)CC2)nc1 (single isomer, unassigned) [Example 573 Isomer B]"
11,< 100 nM,"C[C@@H](CC(=O)N1CCN(c2ccc(C#N)cn2)CC1)OCCOc1cn[nH]c(=O)c1C(F)(F)F (single isomer, unassigned) [Example 538 Isomer B]"
12,< 100 nM,"C[C@@H](COCCC(=O)N1CCN(c2ncccc2C#N)CC1)Nc1cn[nH]c(=O)c1C(F)(F)F [Example 676, (S)-2-(4-(3-(2-((6-Oxo-5-(trifluoromethyl)-1,6-dihydropyridazin-4-yl)amino)propoxy)propanoyl)piperazin-1-yl)nicotinonitrile]"
13,< 100 nM,"C[C@@H](COCCC(=O)N1CCN(c2ncc(C(F)(F)F)cn2)CC1)Nc1cn[nH]c(=O)c1Br [Example 601, 4-Bromo-5-[[(2S)-1-(3-oxo-3-[4-[5-(trifluoromethyl)pyrimidin-2-yl]piperazin-1-yl]propoxy)propan-2-yl]amino]-2,3-dihydropyridazin-3-one]"

# From patent publication US10550105B2 (Ribon Therapeutics Inc., priority 2018, dated 2020)
